Patent publication US10059689B2, “Substituted heteroaryl compounds and methods of use” (Sunshine Lake Pharma Co., Ltd., priority 2014, dated 2018)

Test: Compound stability in rat liver microsomes
Format: in vitro ADME
Conditions: for half-life: pH 7.4, 37° C., NADPH, read-out: Rat T1/2; for CLint scaled: pH 7.4, in vivo CLint extrapolated
Description: Human or rat liver microsomes incubations were conducted in duplicate in polypropylene tubes. The typical incubation mixtures consisted of human or rat liver microsomes (0.5 mg protein/mL), compounds of interest (5 μM) and NADPH (1.0 mM) in a total volume of 200 μL potassium phosphate buffer (PBS, 100 mM, pH 7.4). Compounds were dissolved in DMSO and diluted with PBS such that the final concentration of DMSO was 0.05%. The enzymatic reactions were commenced with the addition of protein after a 3-min preincubation and incubated in a water bath open to the air at 37° C. Reactions were terminated at various time points (0, 5, 10, 15, 30, 60 min) by adding equal volume of ice-cold acetonitrile. The samples were stored at −80° C. until LC/MS/MS assays.
The concentrations of compounds in the incubation mixtures of human or rat liver microsomes were determined by a LC/MS/MS method. The ranges of the linearity in the concentration range were determined for each tested compounds.
A parallel incubation was performed using denatured microsomes as the negative control, and reactions were terminated at various time points (0, 15, 60 min) after incubation at 37° C.
Verapamil (1 μM) was selected as the positive control, and reactions were terminated at various time points (0, 5, 10, 15, 30, 60 min) after incubation at 37° C. Both positive and negative control samples were included in each assay to ensure the integrity of the microsomal incubation system.
In addition, the stability date of compound in human and rat liver microsomes was also obtained through the following method. Human or rat liver microsomes incubations were conducted in duplicate in polypropylene tubes. The typical incubation mixtures consisted of human or rat liver microsomes (0.5 mg protein/mL), compounds of interest (1.5 μM) and EDTA (1.0 mM) in a total volume of 30 μL potassium phosphate buffer (PBS, 100 mM, pH 7.4). Compounds were dissolved in DMSO and diluted with PBS such that the final concentration of DMSO was 0.2%. The enzymatic reactions were commenced with the addition of 15 μL NADPH (final concentration: 2 mM) after a 10-min preincubation and incubated in a water bath open to the air at 37° C. Reactions were terminated at various time points (0, 15, 30, 60 min) by adding 135 μL acetonitrile (contain IS). The samples were centrifuged at 4000 rpm for 10 min to remove protein, the supernatant was stored at −80° C. until LC/MS/MS assays. Ketanserin (1 μM) was selected as the positive control, and reactions were terminated at various time points (0, 15, 30, 60 min) after incubation at 37° C. Both positive and negative control samples were included in each assay to ensure the integrity of the microsomal incubation system.
The concentrations of compounds in human or rat liver microsome incubations were plotted as a percentage of the relevant zero time point control for each reaction. The in vivo CLint were extrapolated (ref.: Naritomi, Y.; Terashita, S.; Kimura, S.; Suzuki, A.; Kagayama, A.; and Sugiyama, Y.; Prediction of human hepatic clearance from in vivo animal experiments and in vitro metabolic studies with liver microsomes from animals and humans. Drug Metab. Dispos., 2001, 29: 1316-1324).

half-life [min] | CLint scaled [mL/min/kg] | Compound
16.5 | 150 | CN(c1nc(Nc2cnn(C)c2)ncc1Cl)C1CCN(c2ccc(C#N)cn2)CC1 [Ex. 5, 6-(4-((5-chloro-2-((1-methyl-1H-pyrazol-4-yl)amino)pyrimidin-4-yl) (methyl)amino)piperidin-1-yl)nicotinonitrile]
9.68 | 257 | Cc1cc(Nc2ncc(Cl)c(NC3CCN(c4ccc(C#N)nn4)CC3)n2)nn1C [Ex. 13, 6-(4-((5-chloro-2-((1,5-dimethyl-1H-pyrazol-3-yl)amino)pyrimidin-4-yl)amino)piperidin-1-yl)pyridazine-3-carbonitrile]
23.2 | 107 | Cc1c2ccc(Nc3ncc(Cl)c(NC4CCN(c5ccc(C#N)cn5)CC4)n3)cc2nn1C [Ex. 4]
23.6 | 105 | Cc1nn(C)cc1Nc1ncc(Cl)c(NC2CCN(c3ccc(C#N)nn3)CC2)n1 [Ex. 11, 6-(4-((5-chloro-2-((1,3-dimethyl-1H-pyrazol-4-yl)amino)pyrimidin-4-yl)amino)piperidin-1-yl)pyridazine-3-carbonitrile]
17.4 | 142 | Cc1nn(C)cc1Nc1ncc(Cl)c(NC2CCN(c3ccc(C#N)cn3)CC2)n1 [Ex. 10, 6-(4-((5-chloro-2-((1,3-dimethyl-1H-pyrazol-4-yl)amino)pyrimidin-4-yl)amino)piperidin-1-yl)nicotinonitrile]
18.9 | 131 | Cc1c2ccc(Nc3ncc(Cl)c(NC4CCN(c5ccc(C#N)nn5)CC4)n3)cc2nn1C [Ex. 12, 6-(4-((5-chloro-2-((2,3-dimethyl-2H-indazol-6-yl)amino)pyrimidin-4-yl)amino)piperidin-1-yl)pyridazine-3-carbonitrile]
27.7 | 89.7 | Cn1cc(Nc2ncc(Cl)c(NC3CCN(c4ccc(C#N)cn4)CC3)n2)cn1 [Ex. 1, 6-(4-((5-chloro-2-((1-methyl-1H-pyrazol-4-yl)amino)pyrimidin-4-yl)amino)piperidin-1-yl)nicotinonitrile]
